Here are results for 3 compounds from patent US20130102829A1, “METHOD FOR TREATING OSTEOSARCOMA BY BORON NEUTRON CAPTURE THERAPY USING BORIC ACID AS A BORON DRUG” (National Tsing Hua University, priority 2011, published 2013).

The conditions of data set [1]: 60 mg of ^10B stable isotope per kilogram of human body weight; cited from earlier work.
For data set [2] the following is noted: in vivo and in vitro studies; binding to the cis-hydroxy groups; cited from earlier work.
The conditions of data set [3]: oral administration of BA to rats or human; cited from earlier work.
The subject of the next data set is UMR-106 osteosarcoma. The protocol:
(§1) Male SD rats were the animals used in this osteosarcoma-bearing animal-model. Prior to the experiments, the rats were bred in cage for at least one week at temperature of 22° C. and humidity of 30-70%. An artificial lighting condition (12 h on/12 h off) was maintained in the room. The animal feeds and water were unlimited. The tumor cells used in the experiments were UMR-106 cell strain (Rat osteogenic sarcoma cell line, BCRC No: 60270). Firstly, obtained the UMR-106 tumor cells in exponential growth phase from a culture flask, then centrifuged the UMR-106 cells obtained by subculture method, followed by re-suspending the cells in a media without serum or antibiotics, and dividing the suspension into separate centrifuge microtubes. Placed the Matrigel Matrix (BD Bioscience), a syringe, and the centrifuge microtubes with the cell suspension on ice to be cooled for later use. Before implanting the tumor cells, the UMR-106 cell suspension was mixed with an equal amount of Matrigel first.
A SD rat was firstly anesthetized by using 2.5% Isoflurane (Halocarbon Laboratories, River Edge, N.J.), followed by shaving and disinfecting a surgical area on the rat for implanting the tumor cells. A 250 μL micro-syringe was fitted with a 25 gauge needle before extracting 200 μL of a mixed solution containing the cells and Matrigel (10×10^6 cells/200 μL). Then the needle was used to penetrate a SD rat's distal femur, which is the femoral condyle; the syringe was rotated in order to penetrate the femur and the spongy bone, and ensured it had protruded out of the femur by touching with a finger. Subsequently, 100 μL of the tumor cell solution was slowly injected into the extra-skeletal muscular tissues, and 100 μL of the solution was injected into the epiphysis and the metaphysis of the femur (at 0.5 cm deep from skin surface) after slowly retracting the needle. After the implantation, the rats were released back into the cage, and their activities and body conditions were monitored continuously. The animals were immunosuppressed by daily administration of cyclosporin A (10 mg/kg, Sandimmun®, Novartis) for total 7 days from the 3rd to the 9th day after UMR-106 cells injection.
(§2) The experimental animals were divided into three groups; a tumor control group (in which the rats received implantation of tumor cells but not BNCT treatment), a high-dose BNCT group, and a low-dose BNCT group.
After the SD rats were implanted with tumor cells for 11 days, the BNCT treatment and subsequent evaluation of biological effects were commenced. Considering the pharmacokinetics and the changes in boron concentration distribution in the rats after the drug administration, BNCT irradiation was carried out at adequate times after administering boric acid. The rats were anesthetized by gas, then intravenously injected with a boric acid of 25 mg ^10B/kg BW. Fifteen minutes before the neutron irradiation, the rats were injected with Atropine and Zoletil to allow the rats to be anesthetized longer. Each of the rats was placed on a fixing frame with its tumor-bearing area close to the beam aperture of the Tsing Hua Open-pool Reactor (THOR), and then neutron irradiation was performed at a specific neutron flux and irradiation time to achieve a certain total neutron fluence. For the reactor power at 1.2 MW, the neutron fluxes at the central beam exit were 1.34×10^8, 1.07×10^9, and 7.66×10^7 n/cm^2/sec, respectively for thermal, epithermal, and fast neutrons. [Liu, Y. H., Tsai, P. E., Liu, H. M., Jiang, S. H., “Characterization of a BNCT beam using neutron activation and indirect neutron radiography,” Radiation Measurements, vol. 45, pp. 1167-1170, 2010.] After the irradiation, the actual irradiation time and reactor power were adjusted by using the on-line neutron monitoring system for THOR.

The conditions of data set [4]: rat, in vivo. The protocol: Before measuring boron concentration of a sample, it needs to undergo microwave digestion first. A sample was initially placed into a Teflon high-pressure digestion vessel, then added with 3 mL of concentrated nitric acid (14N, 65%) and 0.5 mL of hydrogen peroxide (30-35%), and the vessel was sealed before placing the vessel into a microwave digestion system (MLS 1200 Milestone, Italia) for sample decomposition. […] The sample subsequently turned into a clear solution after complete digestion. After diluting the sample with deionized water, an Inductively Coupled Plasma Atomic Emission Spectrometer (ICP-AES, OPTIMA 2000 DV, PerkinElmer Instruments) was used to measure the boron concentration of the sample. For the conditions of the analysis, the temperature of argon plasma was set at 6000-7000 K; the analytical wavelength was set at 249.773 nm, and the liquid uptake rate was set at approximately 2 mL/min; the operating voltage after the formation of plasma was set at 40 V.
as §1
A SD rat was firstly anesthetized by using 2.5% Isoflurane (Halocarbon Laboratories, River Edge, N.J.), followed by shaving and disinfecting a surgical area on the rat for implanting the tumor cells. […] After the implantation, the rats were released back into the cage, and their activities and body conditions were monitored continuously. […]
Using the boric acid aqueous solution as a boron drug to do the animal experiments, drugs were administered to the osteosarcoma-bearing rats (six-week old, approximately 200-250 g in body weight) via tail vein injection, and the dose of the boric acid drugs was: 25 mg ^10B/kg BW. The rats' body weights needed to be measured and recorded before the experiments for preparing the boric acid aqueous solution. […]

The conditions of data set [5]: in vivo; cited from earlier work.
For data set [6] the following is noted: rat, in vivo.
Source text: as §2
After the SD rats were implanted with tumor cells for 11 days, the BNCT treatment and subsequent evaluation of biological effects were commenced. Considering the pharmacokinetics and the changes in boron concentration distribution in the rats after the drug administration, BNCT irradiation was carried out at adequate times after administering boric acid. The rats were anesthetized by gas, then intravenously injected with a boric acid of 25 mg ^10B/kg BW. Fifteen minutes before the neutron irradiation, the rats were injected with Atropine and Zoletil to allow the rats to be anesthetized longer. […]
Boric acid (25 mg 10B/kg) were injected into the tumor-bearing rats via the tail vein before the irradiation. […] Consequently, the doses received in each of the organs were calculated according to the actual irradiation times and powers, along with simulations of dose rates in the rats' organs from the MCNP application. […]
This is another data set of the same source.

In the next data set the test system is Glioblastoma multiforme. Conditions: in vivo; cited from earlier work.
A further data set concerns brain tumors. Conditions: 1950s; cited from earlier work.

Read-outs that look alike come from different tables or passages of the source.

Regarding `OB(O)O` [boric acid], in data set [1], the “adverse effect of an injection dose of boric acid” value is on record as “no permanent adverse effect”. Further, the “affinity with hydroxyapatite of bone” value in data set [2] is reported as “strong affinity”. The “factor by which boron concentrations in bones exceeded those in blood” value in data set [3] is 4. In the data set with UMR-106 osteosarcoma (80th day after BNCT, hematoxylin and eosin stain), the “histopathological finding of extra-skeletal tumor region” value is recorded as “no-viable tumor cells were found”. The “reduction of the sizes of the tumors” value in the data set with UMR-106 osteosarcoma (80th day after the irradiation) is roughly 90%. Further, the “bone healing on radiographs” value in the data set with UMR-106 osteosarcoma (high dose day 5 to 16, low dose day 5 to 23 after BNCT) was “the bone appeared to be healing gradually”. Besides, the relative tumor area with UMR-106 osteosarcoma (high-dose BNCT group (11.0 Gy), 5th day after BNCT, area divided by area on day of BNCT) is listed as 1.1; in the data set on UMR-106 osteosarcoma (high-dose BNCT group, 10th day after BNCT) it was 0.7; in the data set with UMR-106 osteosarcoma (high-dose BNCT group, 30th day after BNCT), 0.2; with UMR-106 osteosarcoma (high-dose BNCT group, 60th day after BNCT) it was 0.2; with UMR-106 osteosarcoma (high-dose BNCT group, 80th day after BNCT) it was 0.1; in the data set with UMR-106 osteosarcoma (low-dose BNCT group (5.8 Gy), 5th day after BNCT), 1.3. Moreover, the relative tumor area in the data set with UMR-106 osteosarcoma (low-dose BNCT group, 10th day after BNCT) turned out to be 1.1; in the data set on UMR-106 osteosarcoma (low-dose BNCT group, 30th day after BNCT) it was 0.3; with UMR-106 osteosarcoma (low-dose BNCT group, 60th day after BNCT), 0.2; in the data set with UMR-106 osteosarcoma (low-dose BNCT group, 80th day after BNCT), 0.2. In addition, the “boron concentration of extra-skeletal tumor tissues relative to blood” value in data set [4] (male, Sprague-Dawley, 1 h) is given as “approximately 1.2 times”. Further, the “boron concentration of tumor-bearing distal femurs relative to blood” value in data set [4] (male, Sprague-Dawley, 1 h) is listed as “approximately 2.1 times”. Moreover, the “boron concentration of tumor-bearing proximal femurs relative to blood” value in data set [4] (male, Sprague-Dawley, 1 h) is recorded as “approximately 2.6 times”. In addition, the “boron concentrations in the soft tissues compared with blood” value in data set [4] is listed as “similar”. Also, the “ratio of boron concentrations in blood and soft tissue” value in [5] was “one”. Also, the “gastro-intestinal reactions, weight loss and other discomfort after the irradiation” value in [6] is “temporary side-effects”.
For borocaptate sodium [BSH], in the data set with Glioblastoma multiforme, the “ratio of boron concentrations between tumors and normal tissues” value was “does not result in higher ratio”.
With `O=BOB(O)OB(O)OB=O` [Borax, sodium borate], in the data set with brain tumors, the “outcome of BNCT clinical trials” value is “unsuccessful”.
